Like-named read-outs stand apart in the source and are kept apart here.
What was measured:
Human full-length ERα = target: T1, Human full-length ERα (Homo sapiens, UniProt P03372); test: ERα cell-based luciferase reporter assay, agonist mode, transiently transfected HEK293 cells; settings: 24 h; for EC50: low = activity detected but too low for exact value
T1 construct: expression vector encoding human full-length ERα or ERβ; expressed in transfected cells; host or cells: HEK293, transiently transfected
T1 sequence (P03372 1-595): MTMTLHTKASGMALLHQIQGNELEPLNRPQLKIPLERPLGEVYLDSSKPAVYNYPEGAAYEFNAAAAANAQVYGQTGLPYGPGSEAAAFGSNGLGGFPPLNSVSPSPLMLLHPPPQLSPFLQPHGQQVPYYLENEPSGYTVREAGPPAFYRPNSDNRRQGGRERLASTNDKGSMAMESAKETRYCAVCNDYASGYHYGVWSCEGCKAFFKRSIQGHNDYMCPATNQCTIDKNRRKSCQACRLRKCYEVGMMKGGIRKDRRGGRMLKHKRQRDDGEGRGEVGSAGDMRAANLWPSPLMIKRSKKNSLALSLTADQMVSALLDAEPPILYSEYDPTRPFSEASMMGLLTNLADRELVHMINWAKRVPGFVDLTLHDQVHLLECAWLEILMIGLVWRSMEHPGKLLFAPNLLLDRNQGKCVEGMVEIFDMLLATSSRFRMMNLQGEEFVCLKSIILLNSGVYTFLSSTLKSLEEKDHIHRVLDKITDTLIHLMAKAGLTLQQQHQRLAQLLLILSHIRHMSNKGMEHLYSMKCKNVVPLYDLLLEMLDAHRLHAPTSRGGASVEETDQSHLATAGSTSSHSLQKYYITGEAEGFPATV
Procedure: (§1) The selectivity and potency of the various compounds was carried out via in vitro testing in ERα and ERβ cell-based reporter assays. The activity of the selected compounds was determined in the cell-based reporter assays in HEK293 cells.
(§2) The HEK293 cells were propagated in a monolayer in phenol red-free DMEM supplemented with 10% fetal bovine serum, 2 mM Glutamax and penicillin/streptomycin (Thermo Fisher Scientific, MA, USA) and incubated in a 5% CO2 humidified atmosphere at 37° C. Right before transfection, the growth medium was changed to phenol red-free DMEM supplemented with 4% HyClone Fetal Bovine Serum, Charcoal/Dextran Treated (GE Healthcare Life Sciences, USA) and 2 mM Glutamax (starvation medium). The cells were transfected with the expression vector encoding human full-length ERα or ERβ and with the reporter vector containing 3 repeats of estrogen responsive elements (ERE) followed by the minimal thymidine kinase promoter from the herpes simplex virus in the pGL4 vector (Promega, USA). Luciferase served as a reporter gene. The transfection was carried out in 10 cm dishes (Nunc) in the starvation medium. After 24 hours, the cells were trypsinized, counted and seeded to cell culture treated, white, solid 1536-well plates (Corning Inc., NY, USA) at 1500 cells/well in 4 μl of total media volume. The compounds to be tested were diluted in DMSO and transferred to the cells using an acoustic dispenser Echo 520 (Labcyte). The compounds were tested at least at 12 different concentration points in the range from 10 μM to 100 pM, in triplicates. Luciferase activity was determined after 24 hours of incubation with compounds with Britelite plus luciferase reporter gene assay reagent (Perkin Elmer, USA), according to the manufacturer protocol. The luciferase signal was measured on an Envison multimode plate reader (Perkin Elmer, USA). Data were collected and processed using an in-house built LIMS system ScreenX and GraphPad Prism software. EC50 values were calculated using a regression function (dose response, variable slope).

Human full-length ERβ = target: T2, Human full-length ERβ (Homo sapiens, UniProt Q92731); test: ERβ cell-based luciferase reporter assay, agonist mode, transiently transfected HEK293 cells
T2 construct: expression vector encoding human full-length ERα or ERβ; expressed in transfected cells; host or cells: HEK293, transiently transfected
Procedure: as §1, §2

Human full-length GR = target: T3, Human full-length GR (Homo sapiens, UniProt P04150); test: GR cell-based luciferase reporter assay, agonist and antagonist mode, stable U2OS reporter cells; settings: agonist mode and antagonist mode (10 nM dexamethasone), 100 μM to 100 pM, 24 hours
T3 sequence (P04150 1-777): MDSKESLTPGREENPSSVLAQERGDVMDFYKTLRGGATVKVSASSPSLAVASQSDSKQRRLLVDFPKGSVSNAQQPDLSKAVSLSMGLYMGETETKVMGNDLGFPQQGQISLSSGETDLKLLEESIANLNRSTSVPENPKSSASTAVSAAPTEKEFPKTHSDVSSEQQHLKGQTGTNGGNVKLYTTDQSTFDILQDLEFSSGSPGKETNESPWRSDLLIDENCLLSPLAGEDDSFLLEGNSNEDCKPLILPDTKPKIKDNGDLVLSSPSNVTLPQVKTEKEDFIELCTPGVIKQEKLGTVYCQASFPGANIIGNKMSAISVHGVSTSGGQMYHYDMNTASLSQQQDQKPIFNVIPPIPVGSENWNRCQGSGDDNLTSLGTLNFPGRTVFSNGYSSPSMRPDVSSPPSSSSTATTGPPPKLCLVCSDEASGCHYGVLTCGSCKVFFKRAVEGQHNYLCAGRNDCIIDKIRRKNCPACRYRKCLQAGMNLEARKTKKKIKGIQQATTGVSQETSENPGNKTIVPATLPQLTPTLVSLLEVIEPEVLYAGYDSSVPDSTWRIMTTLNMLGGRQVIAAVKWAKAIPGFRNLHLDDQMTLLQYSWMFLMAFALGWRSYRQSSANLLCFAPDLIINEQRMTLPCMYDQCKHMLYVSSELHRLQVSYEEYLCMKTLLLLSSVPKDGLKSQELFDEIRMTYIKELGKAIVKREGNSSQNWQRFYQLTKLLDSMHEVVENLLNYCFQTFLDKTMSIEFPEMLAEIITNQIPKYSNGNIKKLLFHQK

HEK293 cells = test: HEK293 viability assay (ATPlite 1step); format: cell-based, human; settings: non-transfected HEK293, 24 h, ATP level; for HEK293 viability IC50 (μM): Low = activity detected but too low for exact value
Procedure: The non-transfected HEK293 cells were seeded to the 384-well plates at 5000 cell/well, compounds were added and the timing of all subsequent steps was exactly the same as in the reporter assays. […] After 24 h of compound incubation with cells, the viability of cells was measured by determining the ATP level in the samples using luciferase cell viability assay, ATPlite 1step (Perkin Elmer, USA).

Human full-length AR = target: T4, Human full-length AR (Homo sapiens, UniProt P10275); test: AR cell-based luciferase reporter assay, agonist and antagonist mode, stable U2OS reporter cells; settings: agonist mode and antagonist mode (2 nM dihydrotestosterone), 100 μM to 100 pM, 24 hours
T4 sequence (P10275 1-920): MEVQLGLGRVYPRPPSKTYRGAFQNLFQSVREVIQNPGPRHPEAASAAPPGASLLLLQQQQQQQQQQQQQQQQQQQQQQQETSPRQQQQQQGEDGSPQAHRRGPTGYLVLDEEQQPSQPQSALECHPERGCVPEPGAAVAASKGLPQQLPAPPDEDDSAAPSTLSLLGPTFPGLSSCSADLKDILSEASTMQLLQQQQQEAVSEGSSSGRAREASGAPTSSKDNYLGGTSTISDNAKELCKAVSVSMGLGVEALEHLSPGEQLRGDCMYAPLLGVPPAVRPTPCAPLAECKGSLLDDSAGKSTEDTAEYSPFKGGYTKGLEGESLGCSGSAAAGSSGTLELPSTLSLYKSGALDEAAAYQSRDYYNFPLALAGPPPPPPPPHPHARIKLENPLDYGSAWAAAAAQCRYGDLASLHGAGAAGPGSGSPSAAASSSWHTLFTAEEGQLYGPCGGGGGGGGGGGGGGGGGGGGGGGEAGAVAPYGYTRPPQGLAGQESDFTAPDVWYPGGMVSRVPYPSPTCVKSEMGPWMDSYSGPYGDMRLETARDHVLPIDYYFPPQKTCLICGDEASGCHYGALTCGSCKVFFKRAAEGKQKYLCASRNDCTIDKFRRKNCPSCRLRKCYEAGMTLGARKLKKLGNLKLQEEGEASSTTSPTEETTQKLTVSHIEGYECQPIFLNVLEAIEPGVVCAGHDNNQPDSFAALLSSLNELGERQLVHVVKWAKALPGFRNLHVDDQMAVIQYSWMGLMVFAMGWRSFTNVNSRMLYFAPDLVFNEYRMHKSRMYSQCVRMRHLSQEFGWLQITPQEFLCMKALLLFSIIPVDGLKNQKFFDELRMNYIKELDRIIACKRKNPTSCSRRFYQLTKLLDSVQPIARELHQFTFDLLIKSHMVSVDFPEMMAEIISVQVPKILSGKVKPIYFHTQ

[1] = Trial 2 (believed more reliable)

T2 sequence (Q92731 whole entry): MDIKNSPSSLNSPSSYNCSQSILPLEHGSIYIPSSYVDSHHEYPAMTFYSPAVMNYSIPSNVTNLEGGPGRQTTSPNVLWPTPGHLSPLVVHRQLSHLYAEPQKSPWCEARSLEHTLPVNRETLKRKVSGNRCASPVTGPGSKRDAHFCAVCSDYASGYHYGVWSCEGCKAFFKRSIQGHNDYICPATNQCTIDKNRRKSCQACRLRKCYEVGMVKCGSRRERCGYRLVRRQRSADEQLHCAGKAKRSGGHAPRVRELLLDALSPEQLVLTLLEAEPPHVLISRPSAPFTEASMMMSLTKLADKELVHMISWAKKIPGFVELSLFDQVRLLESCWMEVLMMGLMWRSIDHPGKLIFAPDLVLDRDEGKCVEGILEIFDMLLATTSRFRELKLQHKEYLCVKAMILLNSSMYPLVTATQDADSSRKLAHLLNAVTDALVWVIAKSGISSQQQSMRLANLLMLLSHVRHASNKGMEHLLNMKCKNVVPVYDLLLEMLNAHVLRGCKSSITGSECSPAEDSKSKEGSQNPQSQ

## CCCc1c(-c2ccc(O)cc2)nn(-c2ccc(O)cc2)c1-c1ccc(O)cc1 [PPT, Propyl pyrazole triol]
Human full-length ERα
  ERα Efficacy (%): 101%
Human full-length ERα; read-out: ERα EC50
  EC50: 3.3 nM
Human full-length ERα; log10 of EC50, negative values, read-out: ERα Log(EC50) (converted)
  EC50: 3.31 nM
Human full-length ERβ; 24 h, low = activity detected but too low for exact value
  ERβ EC50 (nM): low
Human full-length ERβ; log10 of EC50, negative values, 24 h, low = activity detected but too low for exact value
  ERβ Log(EC50) (M): low

## C[C@]12CC[C@@H]3c4ccc(O)cc4CC[C@H]3[C@@H]1CC[C@@H]2O [Compound E2, Estradiol]
Human full-length GR
  agonistic or antagonistic activities on GR: no agonistic or antagonistic activities
HEK293 cells
  HEK293 viability IC50 (μM): Low

## 1-(4-hydoxyphenyl)-12-(1-hydroxyheptyl)-1,12-dicarba-closo-dodecaborane [Compound 06]
Human full-length GR
  agonistic or antagonistic activities on GR: no agonistic or antagonistic activities
Human full-length ERβ; Trial 1
  ERβ Efficacy (%): 100%
Human full-length ERβ; Trial 1, log10 of EC50
  ERβ Log(EC50) (M): −7.71 M
Human full-length ERβ; Trial 1, read-out: ERβ EC50
  EC50: 19 nM
Human full-length ERβ; [1]
  ERβ Efficacy (%): 103%
Human full-length ERβ; Trial 2 (believed more reliable), log10 of EC50
  ERβ Log(EC50) (M): −7.76 M
Human full-length ERβ; Trial 2 (believed more reliable), read-out: ERβ EC50
  EC50: 17 nM
Human full-length ERβ; differs from Table 5, luciferase reporter assay in HEK cells, read-out: EC50 at ERβ
  EC50: 5 nM
HEK293 cells; Trial 1
  IC50: 18000 nM
HEK293 cells; [1]
  IC50: 17000 nM

## N#CC(Cc1ccc(O)cc1)c1ccc(O)cc1 (centres unmarked) [DPN, Diarylpropionitrile]
Human full-length GR
  agonistic or antagonistic activities on GR: no agonistic or antagonistic activities
HEK293 cells
  HEK293 viability IC50 (μM): Low
Human full-length AR
  agonistic or antagonistic activities on AR: no agonistic or antagonistic activities
